# Measurements published in ChEMBL document CHEMBL1944544, “Synthesis and immunological evaluation of the 4-β-glucoside of HMBPP” (Bioorg Med Chem Lett, 2012).
# Calls of active or inactive are those of the source. The rule behind the calls is not given here.
# System: T-cell
# Test: Immunostimulatory activity in human Gamma delta T cells expressing Vgamma2Vdelta2T assessed as proliferation up to 300 uM after 16 to 24 hrs by [3H]thymidine incorporation assay
# Format: functional, cell-based
# Settings: not given
row,Structure (SMILES),Activity
1,C/C(=C\CO[C@@H]1O[C@H](CO)[C@@H](O)[C@H](O)[C@H]1O)CO,inactive
2,C/C(=C\CO)CO[C@@H]1O[C@H](CO)[C@@H](O)[C@H](O)[C@H]1O,inactive

# System: not listed separately
# Test: Immunostimulatory activity in human Gamma delta T cells expressing Vgamma2Vdelta2T assessed as proliferation after 16 to 24 hrs by [3H]thymidine incorporation assay
# Format: functional, cell-based
# Settings: T-cell
row,Structure (SMILES),EC50 [nM]
1,C/C(=C\COP(=O)(O)OP(=O)(O)O)COC(=O)c1ccc(C(=O)c2ccccc2)cc1,0.08
2,C/C(=C\COP(=O)(O)OP(=O)(O)O)COCc1cccc(C(=O)c2ccccc2)c1,1.8
3,CC(=O)OC[C@H]1O[C@@H](OC/C(C)=C/COP(=O)(O)OP(=O)(O)O)[C@H](OC(C)=O)[C@@H](OC(C)=O)[C@@H]1OC(C)=O,360
4,C/C(=C\COP(=O)(O)OP(=O)(O)O)COC(=O)c1cccc(C(=O)c2ccccc2)c1,0.08
5,C/C(=C\COP(=O)(O)OP(=O)(O)O)COCc1ccc(C(=O)c2ccccc2)cc1,1.8
6,C/C(=C\COP(=O)(O)OP(=O)(O)O)CO[C@@H]1O[C@H](CO)[C@@H](O)[C@H](O)[C@H]1O,78

# System: T-cell
# Test: Ratio of compound EC50 to isopentenyl pyrophosphate EC50 for immunostimulatory activity in human Gamma delta T cells expressing Vgamma2Vdelta2T
# Format: functional
# Settings: not given
row,Structure (SMILES),Ratio EC50
1,C/C(=C\COP(=O)(O)OP(=O)(O)O)CO[C@@H]1O[C@H](CO)[C@@H](O)[C@H](O)[C@H]1O,12
